# Laboratory results as given in paper PMC3813431 (Aquatic toxicology (Amsterdam, Netherlands), 2013).
# Entries after “also recorded” stand apart in the source; their conditions may differ. Read-outs that look alike come from different tables or passages of the source. Marks after values point to notes of the source that are not given here.
# Experiments:
# [1] = target: ryanodine receptor, isoform 1 (RyR1) (Oncorhynchus mykiss, UniProt A0A8C7UX14); assay type: binding, rainbow trout (Oncorhynchus mykiss); settings: for Comparison (Ratio): Fish RPF compared to Mammal RPF; for Log-Probit Slope / Bmax / Bmax (pmol/mg): Mean ± SEM; for Bmax / Bmax (pmol/mg): maximal level of [3H]Ry binding at saturation; for Fish RPF: relative potency factor, Q20 relative to PCB 95; for activity toward RyR1: rainbow trout preparation
# RyR1 [2] = assay: Mammalian RyR1 [3H]ryanodine binding; set-up: species or system rabbit; settings: relative potency factor, EC2X relative to PCB 95; from literature EC2X values
# RyR1 [3] = settings: ref Pessah et al. 2006; cited from earlier work
# RyR1 [4] = settings: estimated from QSAR; ref Rayne and Forest 2010; cited from earlier work
# [5] = linear regression of log-probit plot, (−) inactive
# [6] = sigmoidal fit of enhanced [3H]Ry binding, PCB 0–20 μM, (−) inactive
# Chain of ryanodine receptor, isoform 1 (RyR1) (A0A8C7UX14 1-5031): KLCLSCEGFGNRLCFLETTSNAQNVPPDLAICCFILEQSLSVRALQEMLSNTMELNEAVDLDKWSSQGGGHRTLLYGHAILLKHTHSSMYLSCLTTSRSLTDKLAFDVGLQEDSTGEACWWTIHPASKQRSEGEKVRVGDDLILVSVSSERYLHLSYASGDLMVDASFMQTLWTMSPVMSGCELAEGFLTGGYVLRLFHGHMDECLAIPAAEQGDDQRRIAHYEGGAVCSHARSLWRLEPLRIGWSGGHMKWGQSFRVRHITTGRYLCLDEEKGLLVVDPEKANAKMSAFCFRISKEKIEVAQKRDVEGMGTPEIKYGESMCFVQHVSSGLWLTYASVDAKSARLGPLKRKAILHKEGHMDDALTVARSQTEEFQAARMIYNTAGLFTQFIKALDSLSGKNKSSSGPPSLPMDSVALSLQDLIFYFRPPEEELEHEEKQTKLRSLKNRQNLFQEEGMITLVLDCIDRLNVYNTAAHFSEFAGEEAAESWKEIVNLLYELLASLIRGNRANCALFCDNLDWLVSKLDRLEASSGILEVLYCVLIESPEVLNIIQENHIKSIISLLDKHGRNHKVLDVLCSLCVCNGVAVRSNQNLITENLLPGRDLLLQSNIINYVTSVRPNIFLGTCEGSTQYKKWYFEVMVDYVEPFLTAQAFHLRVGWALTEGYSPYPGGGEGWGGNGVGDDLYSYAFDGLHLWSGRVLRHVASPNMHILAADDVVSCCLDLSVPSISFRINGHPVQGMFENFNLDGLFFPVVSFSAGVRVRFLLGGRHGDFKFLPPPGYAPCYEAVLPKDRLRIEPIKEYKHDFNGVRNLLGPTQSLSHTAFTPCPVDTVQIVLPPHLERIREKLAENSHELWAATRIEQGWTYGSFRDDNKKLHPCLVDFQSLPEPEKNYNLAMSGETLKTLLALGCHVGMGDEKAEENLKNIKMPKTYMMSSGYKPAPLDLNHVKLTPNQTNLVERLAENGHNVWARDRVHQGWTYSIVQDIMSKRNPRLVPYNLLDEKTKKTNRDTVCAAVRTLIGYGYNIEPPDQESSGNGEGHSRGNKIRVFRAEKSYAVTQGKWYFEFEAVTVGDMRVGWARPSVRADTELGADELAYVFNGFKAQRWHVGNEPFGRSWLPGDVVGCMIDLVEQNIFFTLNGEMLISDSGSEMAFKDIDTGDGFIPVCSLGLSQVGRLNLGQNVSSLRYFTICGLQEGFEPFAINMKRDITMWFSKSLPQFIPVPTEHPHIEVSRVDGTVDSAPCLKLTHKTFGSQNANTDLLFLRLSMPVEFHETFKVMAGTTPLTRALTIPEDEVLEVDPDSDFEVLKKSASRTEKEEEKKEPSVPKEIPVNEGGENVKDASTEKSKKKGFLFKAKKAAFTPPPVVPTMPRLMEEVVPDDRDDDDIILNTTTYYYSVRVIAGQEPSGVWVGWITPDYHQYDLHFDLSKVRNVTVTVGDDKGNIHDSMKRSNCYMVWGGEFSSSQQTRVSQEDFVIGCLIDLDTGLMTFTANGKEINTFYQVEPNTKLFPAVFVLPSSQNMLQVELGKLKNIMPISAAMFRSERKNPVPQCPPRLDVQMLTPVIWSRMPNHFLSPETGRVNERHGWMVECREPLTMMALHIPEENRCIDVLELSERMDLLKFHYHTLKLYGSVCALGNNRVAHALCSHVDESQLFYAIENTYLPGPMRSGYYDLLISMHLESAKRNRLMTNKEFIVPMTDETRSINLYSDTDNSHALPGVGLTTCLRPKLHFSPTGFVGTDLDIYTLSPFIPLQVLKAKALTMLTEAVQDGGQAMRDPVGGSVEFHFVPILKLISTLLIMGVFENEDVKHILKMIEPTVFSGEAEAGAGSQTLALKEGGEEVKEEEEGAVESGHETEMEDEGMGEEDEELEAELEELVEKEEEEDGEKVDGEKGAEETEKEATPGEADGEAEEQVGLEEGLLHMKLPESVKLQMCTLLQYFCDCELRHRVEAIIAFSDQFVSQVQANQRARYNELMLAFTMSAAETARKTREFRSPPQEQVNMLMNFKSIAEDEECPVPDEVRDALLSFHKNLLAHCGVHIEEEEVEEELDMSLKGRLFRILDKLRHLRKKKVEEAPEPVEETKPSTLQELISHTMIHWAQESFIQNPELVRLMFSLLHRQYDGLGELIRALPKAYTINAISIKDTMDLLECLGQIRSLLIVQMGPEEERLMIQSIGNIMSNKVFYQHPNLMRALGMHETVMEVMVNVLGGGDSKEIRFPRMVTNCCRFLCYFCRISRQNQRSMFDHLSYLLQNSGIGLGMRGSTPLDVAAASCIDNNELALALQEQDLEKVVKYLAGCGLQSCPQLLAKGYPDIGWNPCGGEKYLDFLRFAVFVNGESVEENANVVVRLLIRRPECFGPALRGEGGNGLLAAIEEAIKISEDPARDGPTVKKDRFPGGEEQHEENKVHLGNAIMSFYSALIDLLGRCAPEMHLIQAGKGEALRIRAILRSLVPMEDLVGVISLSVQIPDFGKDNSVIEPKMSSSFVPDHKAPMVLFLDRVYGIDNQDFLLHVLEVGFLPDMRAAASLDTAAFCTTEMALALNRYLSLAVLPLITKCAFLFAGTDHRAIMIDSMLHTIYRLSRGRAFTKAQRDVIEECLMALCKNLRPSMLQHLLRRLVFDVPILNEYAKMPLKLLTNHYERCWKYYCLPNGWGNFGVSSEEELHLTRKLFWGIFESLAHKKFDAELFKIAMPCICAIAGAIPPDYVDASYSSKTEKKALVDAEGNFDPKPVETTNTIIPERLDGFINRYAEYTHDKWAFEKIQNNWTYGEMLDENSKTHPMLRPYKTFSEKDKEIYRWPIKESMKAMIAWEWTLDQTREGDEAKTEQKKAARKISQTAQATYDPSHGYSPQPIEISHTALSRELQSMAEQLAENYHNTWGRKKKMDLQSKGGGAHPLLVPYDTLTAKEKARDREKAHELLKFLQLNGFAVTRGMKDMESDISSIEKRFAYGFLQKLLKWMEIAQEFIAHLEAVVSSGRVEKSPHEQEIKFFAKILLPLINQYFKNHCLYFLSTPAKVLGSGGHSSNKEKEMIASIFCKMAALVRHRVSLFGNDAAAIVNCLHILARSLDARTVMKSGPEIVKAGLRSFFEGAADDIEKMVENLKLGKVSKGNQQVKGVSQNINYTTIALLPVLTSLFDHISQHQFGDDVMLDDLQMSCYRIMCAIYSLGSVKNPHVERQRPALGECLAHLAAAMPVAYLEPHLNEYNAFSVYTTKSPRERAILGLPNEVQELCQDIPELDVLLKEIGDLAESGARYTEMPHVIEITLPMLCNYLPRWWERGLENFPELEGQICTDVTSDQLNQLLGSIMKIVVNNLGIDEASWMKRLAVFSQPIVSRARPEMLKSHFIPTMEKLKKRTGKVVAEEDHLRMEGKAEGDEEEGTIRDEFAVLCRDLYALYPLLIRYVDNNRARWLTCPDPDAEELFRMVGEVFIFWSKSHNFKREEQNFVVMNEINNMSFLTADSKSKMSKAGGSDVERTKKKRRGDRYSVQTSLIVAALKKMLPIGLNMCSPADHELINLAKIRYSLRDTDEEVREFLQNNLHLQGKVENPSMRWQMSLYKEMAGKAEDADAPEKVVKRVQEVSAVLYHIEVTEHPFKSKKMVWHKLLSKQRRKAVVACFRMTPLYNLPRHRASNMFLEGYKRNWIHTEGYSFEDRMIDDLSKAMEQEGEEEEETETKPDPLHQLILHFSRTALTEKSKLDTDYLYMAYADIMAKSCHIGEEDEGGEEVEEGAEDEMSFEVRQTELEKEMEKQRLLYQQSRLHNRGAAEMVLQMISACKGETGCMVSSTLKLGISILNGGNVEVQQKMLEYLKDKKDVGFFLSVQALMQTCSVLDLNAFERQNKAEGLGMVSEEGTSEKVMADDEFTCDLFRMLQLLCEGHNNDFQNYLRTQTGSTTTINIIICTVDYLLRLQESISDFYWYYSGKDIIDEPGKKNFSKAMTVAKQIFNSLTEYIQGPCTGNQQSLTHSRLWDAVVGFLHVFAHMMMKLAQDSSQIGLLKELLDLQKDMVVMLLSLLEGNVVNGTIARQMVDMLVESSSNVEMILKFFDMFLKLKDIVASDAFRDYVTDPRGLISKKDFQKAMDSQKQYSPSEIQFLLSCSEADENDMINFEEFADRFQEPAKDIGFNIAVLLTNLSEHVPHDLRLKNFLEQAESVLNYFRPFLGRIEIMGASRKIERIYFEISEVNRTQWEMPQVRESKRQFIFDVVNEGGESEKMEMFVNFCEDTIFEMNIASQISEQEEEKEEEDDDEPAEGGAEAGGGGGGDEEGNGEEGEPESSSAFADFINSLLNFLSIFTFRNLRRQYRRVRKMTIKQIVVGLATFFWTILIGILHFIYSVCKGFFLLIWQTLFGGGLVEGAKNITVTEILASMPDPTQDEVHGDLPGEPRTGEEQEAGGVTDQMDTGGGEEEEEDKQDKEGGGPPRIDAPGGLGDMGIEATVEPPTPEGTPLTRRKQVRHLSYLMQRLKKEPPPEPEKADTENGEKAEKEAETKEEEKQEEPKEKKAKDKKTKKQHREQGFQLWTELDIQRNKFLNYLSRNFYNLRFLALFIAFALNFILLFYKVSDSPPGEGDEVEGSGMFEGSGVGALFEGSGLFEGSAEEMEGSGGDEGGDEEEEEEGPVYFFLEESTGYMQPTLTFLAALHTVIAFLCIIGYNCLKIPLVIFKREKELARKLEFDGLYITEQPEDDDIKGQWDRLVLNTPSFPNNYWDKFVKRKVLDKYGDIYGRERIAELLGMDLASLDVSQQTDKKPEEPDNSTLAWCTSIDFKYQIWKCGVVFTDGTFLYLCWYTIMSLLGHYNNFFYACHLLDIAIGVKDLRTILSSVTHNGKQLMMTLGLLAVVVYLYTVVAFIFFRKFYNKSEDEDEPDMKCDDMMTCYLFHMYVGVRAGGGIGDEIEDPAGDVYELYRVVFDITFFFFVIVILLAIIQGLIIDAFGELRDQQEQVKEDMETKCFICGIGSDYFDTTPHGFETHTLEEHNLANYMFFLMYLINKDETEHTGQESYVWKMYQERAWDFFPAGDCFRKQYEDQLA
Compound,Comparison (Ratio) [1],"Log-Probit Slope [1, 5]",Bmax ([1]; (−) inactive) [pmol/mg],Fish RPF ([1]; (−) inactive),"EC50 [1, 6] [nM]",Mammal RPF (RyR1 [2]),Mammal EC2X (RyR1 [3]) [µM],activity toward the RyR1 in mammals (RyR1 [3]),"receptor activity, % of baseline ([1]; at 20 μM (data not shown))",Log-Probit Slope ([1]; parameter determined using activating concentrations only),Mammal EC2X (μM) (RyR1 [4]),Bmax (pmol/mg) ([1]; (−) inactive),activity toward RyR1 [1],EC20 ([1]; read-out: Fish Normalized Q20 (μM)) [µM],Emax ([1]; read-out: Maximum Response (% of Control)) [%],EC50 ([1]; single compound) [nM]
Clc1ccc(Cl)c(-c2cc(Cl)ccc2Cl)c1 [PCB 52],0.69,2.66 ± 0.09,0.77 ± 0.05,0.31,2940,0.45,0.49,,,,,,,,,
Clc1ccc(-c2cc(Cl)c(Cl)c(Cl)c2)cc1Cl [PCB 126],,,,,,,,inactive,,,,,,,,
Clc1cc(Cl)c(-c2c(Cl)c(Cl)cc(Cl)c2Cl)cc1Cl [PCB 187],0.16,3.05 ± 0.07,0.45 ± 0.02,0.06,1300,0.38,0.58,,,,,,,,,
Clc1ccc(-c2c(Cl)ccc(Cl)c2Cl)c(Cl)c1Cl [PCB 132],0.10,,0.46 ± 0.02,0.02,1320,0.24,0.91,,88 % of baseline,1.70 ± 0.04 ^a,,,,,,
Clc1ccc(Cl)c(-c2c(Cl)ccc(Cl)c2Cl)c1Cl [PCB 136],0.63,3.16 ± 0.14,0.96 ± 0.04,0.60,1300,0.96,0.23,,,,,,,,,
Clc1ccc(Cl)c(-c2c(Cl)c(Cl)cc(Cl)c2Cl)c1 [PCB 151],0.45,1.91 ± 0.04,0.77 ± 0.04,0.20,2760,0.44,0.50,,,,,,,,,
Clc1ccc(-c2ccc(Cl)c(Cl)c2)c(Cl)c1 [PCB 66],0.44,2.93 ± 0.00,0.42 ± 0.02,0.04,1160,0.09,2.38,,,,,,,,,
Clc1ccc(-c2cc(Cl)c(Cl)cc2Cl)c(Cl)c1 [PCB 99],0.35,2.30 ± 0.05,0.61 ± 0.03,0.03,3590,0.08,2.80,,,,,,,,,
Clc1cccc(-c2cccc(Cl)c2Cl)c1 [PCB 20],0.05,2.83 ± 0.10,0.34 ± 0.02,0.01,1800,0.11,,,,,2 ^c μM,,,,,
Clc1cc(Cl)c(-c2c(Cl)cc(Cl)c(Cl)c2Cl)cc1Cl [PCB 183],0.16,1.58 ± 0.09,0.42 ± 0.03,0.06,1820,0.40,0.55,,,,,,,,,
Clc1ccc(Cl)c(-c2cccc(Cl)c2Cl)c1 [PCB 44],0.29,4.20 ± 0.10,0.50 ± 0.03,0.08,4500,0.28,,,,,0.8 ^c μM,,,,,
Clc1ccc(-c2ccc(Cl)cc2Cl)cc1 [PCB 28],,,,,> 20000,0.04,,,,,5 ^c μM,-,inactive,,,
Clc1cc(-c2cc(Cl)c(Cl)c(Cl)c2Cl)c(Cl)c(Cl)c1Cl [PCB 194],0.09,8.94 ± 0.34,0.36 ± 0.02,0.04,1270,0.44,,,,,0.5 ^c μM,,,,,
Clc1cc(Cl)c(-c2cc(Cl)c(Cl)cc2Cl)cc1Cl [PCB 153],0.41,2.25 ± 0.05,0.54 ± 0.02,0.07,5750,0.18,1.21,,,,,,,,,
Clc1ccc(-c2c(Cl)ccc(Cl)c2Cl)cc1Cl [PCB 110],,2.60 ± 0.01,0.48 ± 0.03,,1080,0.19,1.13,,,,,,,,,
Clc1ccc(Cl)c(-c2cc(Cl)c(Cl)cc2Cl)c1 [PCB 101],1.64,1.83 ± 0.04,0.64 ± 0.04,0.42,1980,0.26,0.86,,,,,,,,,
Clc1ccc(Cl)c(-c2c(Cl)ccc(Cl)c2Cl)c1 [PCB 95],1.00,2.15 ± 0.05,0.95 ± 0.04,1.00,1060,1.00,0.22,,,,,,,,,
Clc1ccc(-c2cc(Cl)c(Cl)c(Cl)c2Cl)c(Cl)c1Cl [PCB 170],,,,,> 20000,0.30,0.73,,,,,-,inactive,,,
Clc1cc(Cl)c(-c2cc(Cl)c(Cl)c(Cl)c2Cl)cc1Cl [PCB 180],0.17,1.84 ± 0.06,0.40 ± 0.03,,,0.23,0.96,,,,,,,11.2,132 ± 9.87,
Brc1ccc(Oc2cc(Br)ccc2Br)c(Br)c1 [PBDE49],,,,,,,,,,,,,,,,3480
Clc1cc(Cl)c(-c2c(Cl)ccc(Cl)c2Cl)cc1Cl [PCB 149],1.45,3.40 ± 0.08,0.76 ± 0.04,0.96,810,0.67,0.33,,,,,,,,,
Clc1ccc(-c2ccc(Cl)c(Cl)c2)cc1Cl [PCB 77],,,,,> 20000,0.04,5.00,,,,,-,negligible impact; also recorded: inactive,,,
